# In ChEMBL document CHEMBL1201862, “PubChem BioAssay data set” (2004):
#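 Dose response: 5 concentrations. Exposure: 48 h. Format: 96-well plates. Endpoint: linear interpolation; highest concentration if not reached. Here, GI50 denotes the concentration required for 50% inhibition of growth.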 Activity calls are given as the source filed them. Rule as the data show it: active = GI50 up to about 1.1 µM and inactive = higher.
# Columns and labels:
# Experiment in all cases: NCI-60 cell line screen, 48 h
# A498 = tested on: A498
# A549 = tested on: A549
# ACHN = tested on: ACHN
# DU-145 = tested on: DU-145
# HT-29 = tested on: HT-29
# K562 = tested on: K562
# KM12 = tested on: KM12
# Malme-3M = tested on: Malme-3M
# NCI-H226 = tested on: NCI-H226
# NCI-H23 = tested on: NCI-H23
# OVCAR-5 = tested on: OVCAR-5
# PC-3 = tested on: PC-3
# RXF 393 = tested on: RXF 393
# SK-MEL-2 = tested on: SK-MEL-2
# SR = tested on: SR
# T47D = tested on: T47D
# UACC-257 = tested on: UACC-257
# UO-31 = tested on: UO-31
# HOP-62 = tested on: HOP-62
# SF-295 = tested on: SF-295
Structure (SMILES),GI50 (A498),GI50 (A549),GI50 (ACHN),GI50 (DU-145),GI50 (HT-29),GI50 (K562),GI50 (KM12),GI50 (Malme-3M),GI50 (NCI-H226),GI50 (NCI-H23),GI50 (OVCAR-5),GI50 (PC-3),GI50 (RXF 393),GI50 (SK-MEL-2),GI50 (SR),GI50 (T47D),GI50 (UACC-257),GI50 (UO-31),GI50 (HOP-62),GI50 (SF-295)
COc1cccc(/C=C/C2=NN(c3cccc(S(=O)(=O)O)c3)C3(C2)SCC(=O)N3c2nc3ccccc3s2)c1 (stereo unspecified),33 µM (inactive),60.3 µM (inactive),51.8 µM (inactive),30.6 µM (inactive),64.7 µM (inactive),34.3 µM (inactive),32 µM (inactive),47 µM (inactive),23.8 µM (inactive),86.1 µM (inactive),> 100 µM (inactive),37.9 µM (inactive),54.8 µM (inactive),44.8 µM (inactive),23.9 µM (inactive),16.1 µM (inactive),85.7 µM (inactive),34.9 µM (inactive),–,–
CC1CCC2C(C)C3C(CC4C5CC=C6CC(OC7OC(CO)C(O)C(OC8OC(CO)C(O)C(O)C8O)C7OC7OC(C)C(O)C(O)C7O)CCC6(C)C5CCC43C)N2C1 (stereo unspecified),17.5 µM (inactive),7.05 µM (inactive),8.89 µM (inactive),18.9 µM (inactive),12 µM (inactive),16 µM (inactive),14.8 µM (inactive),27.7 µM (inactive),20.8 µM (inactive),14.7 µM (inactive),14.3 µM (inactive),14.9 µM (inactive),10.2 µM (inactive),19.5 µM (inactive),15.1 µM (inactive),19.3 µM (inactive),16.1 µM (inactive),6.37 µM (inactive),17.3 µM (inactive),10.2 µM (inactive)
COc1ccc(-c2coc3cc(O)ccc3c2=O)cc1 [FORMONONETIN],> 100 µM (inactive),> 100 µM (inactive),> 100 µM (inactive),> 100 µM (inactive),> 100 µM (inactive),> 100 µM (inactive),> 100 µM (inactive),> 100 µM (inactive),> 100 µM (inactive),> 100 µM (inactive),> 100 µM (inactive),> 100 µM (inactive),–,> 100 µM (inactive),> 100 µM (inactive),> 100 µM (inactive),> 100 µM (inactive),90.6 µM (inactive),> 100 µM (inactive),> 100 µM (inactive)
CCOC(=O)C(NC(=O)c1ccccc1)(N1CCN(c2cc3c(cc2F)c(=O)c(C(=O)O)cn3C2CC2)CC1)C(F)(F)F (stereo unspecified),28.1 µM (inactive),34 µM (inactive),23.9 µM (inactive),27.5 µM (inactive),–,20.2 µM (inactive),16.8 µM (inactive),20.2 µM (inactive),21.2 µM (inactive),15.1 µM (inactive),20.4 µM (inactive),23.6 µM (inactive),19.5 µM (inactive),18.7 µM (inactive),20.5 µM (inactive),20.6 µM (inactive),–,23 µM (inactive),31 µM (inactive),27 µM (inactive)
CC(CSc1nc2c(c(=N)n1-c1ccccc1)c(=S)n(-c1ccccc1)c(=S)n2-c1ccccc1)CN(C)C (stereo unspecified),2.8 µM (inactive),1.82 µM (inactive),1.76 µM (inactive),1.66 µM (inactive),1.95 µM (inactive),1.07 µM (active),2.25 µM (inactive),1.71 µM (inactive),6.38 µM (inactive),2.2 µM (inactive),13.6 µM (inactive),1.87 µM (inactive),1.59 µM (inactive),2.45 µM (inactive),0.558 µM (active),2.67 µM (inactive),1.79 µM (inactive),–,1.88 µM (inactive),6.22 µM (inactive)
Cc1c(C(=O)c2ccccc2)[n+]([O-])c2cc(Cl)c(Cl)cc2[n+]1[O-],19.6 µM (inactive),13 µM (inactive),14.3 µM (inactive),16.1 µM (inactive),14.4 µM (inactive),4.01 µM (inactive),8.65 µM (inactive),–,2.51 µM (inactive),2.39 µM (inactive),17.9 µM (inactive),17.4 µM (inactive),6.08 µM (inactive),5.92 µM (inactive),1.54 µM (inactive),0.889 µM (active),3.17 µM (inactive),11.8 µM (inactive),15.9 µM (inactive),14.9 µM (inactive)
CC[C@@H](/C=C\CCC(=O)C[C@H](O)CCC=C(C)C)O[Si](C(C)C)(C(C)C)C(C)C,> 100 µM (inactive),73.3 µM (inactive),> 100 µM (inactive),> 100 µM (inactive),52.6 µM (inactive),54.5 µM (inactive),> 100 µM (inactive),–,> 100 µM (inactive),> 100 µM (inactive),> 100 µM (inactive),75.5 µM (inactive),83.9 µM (inactive),42.9 µM (inactive),39.4 µM (inactive),55.5 µM (inactive),85.1 µM (inactive),> 100 µM (inactive),> 100 µM (inactive),> 100 µM (inactive)
Cc1cc(=O)oc2cc(OS(C)(=O)=O)ccc12,> 100 µM (inactive),> 100 µM (inactive),> 100 µM (inactive),> 100 µM (inactive),> 100 µM (inactive),> 100 µM (inactive),–,> 100 µM (inactive),> 100 µM (inactive),> 100 µM (inactive),> 100 µM (inactive),> 100 µM (inactive),> 100 µM (inactive),> 100 µM (inactive),> 100 µM (inactive),> 100 µM (inactive),> 100 µM (inactive),–,> 100 µM (inactive),> 100 µM (inactive)
O=C1c2ccccc2C2(c3ccc(Cl)cc3)N[C@@H]3CCCC[C@@H]3N12 (stereo partly specified),> 100 µM (inactive),> 100 µM (inactive),> 100 µM (inactive),> 100 µM (inactive),–,> 100 µM (inactive),> 100 µM (inactive),–,> 100 µM (inactive),> 100 µM (inactive),> 100 µM (inactive),> 100 µM (inactive),> 100 µM (inactive),> 100 µM (inactive),> 100 µM (inactive),> 100 µM (inactive),> 100 µM (inactive),> 100 µM (inactive),> 100 µM (inactive),> 100 µM (inactive)
NC(=O)CC1OC(=O)Cc2cc3c(c(O)c21)C(=O)c1c(O)cccc1C3=O (stereo unspecified),43.9 µM (inactive),> 100 µM (inactive),41.5 µM (inactive),> 100 µM (inactive),> 100 µM (inactive),39.5 µM (inactive),–,> 100 µM (inactive),> 100 µM (inactive),> 100 µM (inactive),> 100 µM (inactive),> 100 µM (inactive),–,> 100 µM (inactive),43.7 µM (inactive),> 100 µM (inactive),> 100 µM (inactive),32.9 µM (inactive),–,> 100 µM (inactive)
COc1cc(Cl)c(CC(=O)c2c[nH]c3ccccc23)cc1OC,12.1 µM (inactive),> 100 µM (inactive),8.55 µM (inactive),> 100 µM (inactive),> 100 µM (inactive),> 49.2 µM (inactive),> 100 µM (inactive),> 100 µM (inactive),12.6 µM (inactive),> 42.5 µM (inactive),> 100 µM (inactive),> 100 µM (inactive),12.3 µM (inactive),16.7 µM (inactive),> 100 µM (inactive),> 28.5 µM (inactive),> 100 µM (inactive),–,5.3 µM (inactive),16.1 µM (inactive)
CC(=N\N=C\c1ccccn1)/C(C)=N/N=C/c1ccccn1,> 100 µM (inactive),> 100 µM (inactive),> 100 µM (inactive),> 100 µM (inactive),> 100 µM (inactive),–,> 100 µM (inactive),> 100 µM (inactive),> 100 µM (inactive),> 100 µM (inactive),> 100 µM (inactive),> 100 µM (inactive),> 100 µM (inactive),> 100 µM (inactive),88.5 µM (inactive),> 100 µM (inactive),> 100 µM (inactive),> 100 µM (inactive),> 100 µM (inactive),> 100 µM (inactive)
C=CC(C)(C)C1(CC(OC)OC)C(=O)N(C)c2ccccc21 (stereo unspecified),> 25 µM (inactive),> 25 µM (inactive),> 25 µM (inactive),> 25 µM (inactive),> 25 µM (inactive),> 25 µM (inactive),> 25 µM (inactive),–,> 25 µM (inactive),> 25 µM (inactive),> 25 µM (inactive),> 25 µM (inactive),> 25 µM (inactive),> 25 µM (inactive),> 25 µM (inactive),> 25 µM (inactive),> 25 µM (inactive),> 25 µM (inactive),> 25 µM (inactive),> 25 µM (inactive)
CN(C(=O)Cc1cc(Cl)c(Cl)cc1NC(=O)CN)[C@H]1CCCC[C@@H]1N1CCCC1,20.2 µM (inactive),39.1 µM (inactive),79.8 µM (inactive),> 100 µM (inactive),20.7 µM (inactive),24.7 µM (inactive),47.4 µM (inactive),20.8 µM (inactive),–,> 100 µM (inactive),> 100 µM (inactive),37.1 µM (inactive),68.7 µM (inactive),18.8 µM (inactive),29 µM (inactive),25.7 µM (inactive),18.6 µM (inactive),33.8 µM (inactive),> 100 µM (inactive),24.2 µM (inactive)
